Laboratory results from article PMC3070202 (Biochemistry, 2010).

Key:
[1] = biological target: T1, human pancreas-specific protein disulfide isomerase (PDIp) (Homo sapiens, UniProt Q13087, Q265L); assay: [3H]E2 saturation radioligand binding
T1 sequence (Q13087 153-366 Q265L limits assumed): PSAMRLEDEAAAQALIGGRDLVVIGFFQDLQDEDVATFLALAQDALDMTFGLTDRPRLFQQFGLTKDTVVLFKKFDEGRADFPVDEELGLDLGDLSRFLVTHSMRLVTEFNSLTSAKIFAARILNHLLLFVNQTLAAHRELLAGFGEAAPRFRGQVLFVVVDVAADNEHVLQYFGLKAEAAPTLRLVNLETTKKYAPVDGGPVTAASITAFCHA

[2] = biological target: T2, human pancreas-specific protein disulfide isomerase (PDIp) (Homo sapiens, UniProt Q13087); assay: [3H]E2 saturation radioligand binding with Scatchard plot
T2 sequence (Q13087 22-525): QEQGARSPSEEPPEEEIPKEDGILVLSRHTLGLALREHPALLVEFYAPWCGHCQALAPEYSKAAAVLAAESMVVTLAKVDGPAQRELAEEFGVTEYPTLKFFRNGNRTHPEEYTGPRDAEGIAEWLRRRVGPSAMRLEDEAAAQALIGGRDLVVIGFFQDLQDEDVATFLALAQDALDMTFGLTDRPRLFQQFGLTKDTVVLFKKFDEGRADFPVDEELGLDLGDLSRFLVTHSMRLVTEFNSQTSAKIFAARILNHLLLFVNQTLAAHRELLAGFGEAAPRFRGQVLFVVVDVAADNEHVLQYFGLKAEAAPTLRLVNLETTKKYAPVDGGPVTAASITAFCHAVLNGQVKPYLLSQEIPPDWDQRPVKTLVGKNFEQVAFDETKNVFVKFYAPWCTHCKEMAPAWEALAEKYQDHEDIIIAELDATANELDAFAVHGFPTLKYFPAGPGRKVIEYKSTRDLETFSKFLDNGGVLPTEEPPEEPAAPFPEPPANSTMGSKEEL

[3] = biological target: T2, human pancreas-specific protein disulfide isomerase (PDIp); assay: competition with [3H]E2 radioligand binding at […]

Kd [1] [nM]	Kd [2] [nM]	Structure (SMILES)	competition with [3H]E2 radioligand binding at 10 μM [3]
185 ± 8	~170	C[C@]12CC[C@@H]3c4ccc(O)cc4CC[C@H]3[C@@H]1CC[C@@H]2O [E2, Estradiol]	
		C[C@]12CC[C@@H]3c4ccc(O)cc4CC[C@H]3[C@@H]1C[C@@H](O)[C@@H]2O [E3]	could efficiently compete with [^3H]E2 for binding to the b-b′ fragment or the full-length PDIp
